Laboratory results: patent US6806257B1, “Flavones as inducible nitric oxide synthase inhibitors, cyclooxygenase-2 inhibitors and potassium channel activators” (priority 1999, dated 2004)
“Also recorded” adds a separate entry of the source. Where two headings read alike, the source gives them in different places.

How the values were obtained:
[1] = system: porcine cerebral arteries; assay: In vitro tissue bath vasorelaxation of precontracted porcine cerebral arteries; settings: for relaxation of cerebral arteries: concentrations as high as 100 μM, n=4
[2] = system: iNOS; assay: LPS-induced iNOS expression in RAW264.7 macrophages (western/northern blot); format: cell-based, mouse; settings: NLA (or L-NAME) plus LPS co-treated
Experimental: (§1) Cells. RAW264.7, a mouse macrophage cell line, was obtained from American Type Culture Collection. Cells were cultured in RPMI-1640 medium (available from Gibco Life Technology, in Gaithersburg, Md.) supplemented with 2 mM L-glutamine, antibiotics (100 units/ml penicillin-A and 100 units/ml streptomycin) and 10% heat-inactivated fetal bovine serum (Gibco/BRL) and maintained at 37° C in a humidified incubator containing 5% CO2.
(§2) Western blots. Total cellular extract, cytosolic fractions (for IkB) and nuclear fraction (for p65 antibody) were prepared according to Muller et al., Immunobiology, 187, 233-256, 1993 and separated on sodium dodecyl sulfatepolyacrylamide minigels (8% for iNOS or COX-2, and 10% for IkB or p65) and transferred to immobilon polyvinylidene difluoride membranes (Millipore, Bedford, Mass.). The membrane was incubated overnight at 4° C. with 1% bovine serum albumin and then incubated with anti-iNos, COX-2, α-Tubulin monoclonal antibodies (Transduction Laboratories, Lexington, Ky.), anti-IkB or anti-p65 polyclonal antibodies (Santa Cruz Biochemicals, Santa Cruz, Calif.). iNOS, IkB, p65, Cox-2, α-Tubulin were detected by NBT and BCIP staining (Sigma Chemical Co., St. Louis, Mo.).
Northern blot analysis. Total RNA (20 μg/lane) were separated by electrophoresis on 1.2% agarose gel containing 6.7% formaldehyde and transformed to a Hybond-N nylon membrane (American Life Science) in 20×standard saline citrate (3 M sodium chloride and 0.3 M sodium citrate, pH 7.0). After heating at 80° C. for 2 hours and prehybridization for 4 hours, the filters were hybridized with ^32P-labeled murine iNOS cDNA probes at a concentration of 3×10^6 cpm/ml for 16-18 hours at 42° C. The probe was labeled with [α-32P] dCTP by using Random Primer labeling kit (Stratagene, La Jolla, Calif.). Then, the filters were washed, dried and autoradiographed with Kodak-X-Omat XAR-film using intensifying screens at −80° C.

[3] = system: COX-2; assay: LPS-induced COX-2 expression in RAW264.7 macrophages (western/northern blot); format: cell-based, mouse; settings: for LPS-induced COX-2 protein: 20, 40 μM with LPS (100 ng/mL) for 24 hours; for basal COX-2 expression, compound alone: no LPS
Experimental: as §1, §2

[4] = system: COX-2; assay: COX-2 enzyme activity: PGE2 from added arachidonic acid in LPS-treated RAW 264.7 cells; format: cell-based, mouse; settings: for PGE2: then arachidonic acid (100 μM) 15 min; for PGE2 production using added arachidonic acid as a substrate: added after COX-2 induction by LPS
[5] = system: iNOS; assay: Indirect iNOS enzyme assay: NO in medium of LPS-pretreated intact RAW 264.7 cells; format: cell-based, mouse; settings: for iNOS enzyme activity in intact cells by nitrite production in the medium: added to cells pre-treated with LPS
[6] = system: iNOS; assay: Direct iNOS enzyme activity assay in RAW 264.7 cell lysates; format: biochemical, mouse; settings: for NO production by direct enzyme activity assay, compound added to lysate (Table 3): lysates of LPS-treated cells
[7] = system: LPS-induced PGE2 production in RAW 264.7 macrophages; assay: LPS-induced PGE2 production in RAW 264.7 macrophages (co-treatment); format: cell-based, mouse; settings: for PGE2: 24 hours
Experimental: Un-stimulated RAW 264.7 macrophages in culture medium for 24 hours produced basal amount of PGE2 (1.5 ng/mL) in the medium.

[8] = system: LPS-induced NO production in RAW264.7 macrophages; assay: LPS-induced nitrite (NO) production in RAW264.7 macrophages, Griess reaction; format: cell-based, mouse; settings: for NO: 24 hours; for IC50: Mus musculus, RAW264.7, together with LPS (100 μg/mL) for 24 hours, n=3, read-out: IC50 in inhibiting LPS-induced NO production; for LPS-induced nitrite production: different concentrations together with LPS for 24 hours
Experimental: as §1
Nitrite assay. The nitrite concentration in the medium was measured as an indicator of NO production according to the Griess reaction (Kim et al., J. Immunol. 153: 4741-4748). One hundred microliters of each supernatant was. mixed with the same volume of Griess reagent (1% sulfanilamide in 5% phosphoric acid and 0. 1% naphthylethylenediamine dihydrochloride in water); absorbency of the mixture at 550 nm was determined with an enzyme-linked immunosorbent assay plate reader (Dynatech MR-7000; Dynatech Labs, Chantilly, Va.).
The effects of flavonoids, ellagitannins, anthraquinones on LPS-induced NO production in macrophages were studied as follows. The chemical structures of two flavonoids (myricitrin, N1; oroxylin A, N2) four ellagitannins (penta-O-galloyl-β-glucopyranose, N3; woodfordin C, N4; onothein B, N5; cuphiin, N6), and two anthraquinones (emodin, N7; physcion, N8) that were used in the present study were shown in FIG. 1. The effects of these eight compounds on NO production in RAW264.7 macrophages were investigated. The accumulated nitrite in the culture medium was used as an index for NO synthesis from these cells. […]

[9] = system: NF-kB (p65) / IkB; assay: Nuclear p65 / cytosolic IkB western blot in LPS-treated RAW264.7 macrophages; format: cell-based, mouse; settings: 20 μg/ml, 100 ng/ml LPS for 30 minutes
Experimental: as §2
NF-kB is a transcription factor that is activated in response to stimulation by LPS, and activation of NF-kB is an essential factor in inducing iNOS gene expression in macrophages (Kim, Y. M., Biochem. Biophys. Res. Commun. 236, 655-660, 1997). To assess the effect of these compounds (20 μg/ml) on early stage of iNOS gene expression, the activation of NF-kB in RAW264.7 macrophages was examined using the electrophoretic mobility shift assay (EMSA) (FIGS. 6i and 6ii).

[10] = arteries without endothelial cells, U-46619
[11] = 20 μM for 30 min after LPS 6 hours
[12] = 40 μM for 30 min after LPS 6 hours
[13] = 20 μM added for 12 hours after LPS (100 ng/ml) 12 hours pretreatment
[14] = 40 μM added for 12 hours after LPS (100 ng/ml) 12 hours pretreatment
[15] = 20 μM added to lysate of LPS (100 ng/mL, 12 hr)-treated cells
[16] = 40 μM added to lysate of LPS (100 ng/mL, 12 hr)-treated cells
[17] = lysates of LPS-pretreated cells incubated with 20 μM for 12 hours
[18] = lysates of LPS-pretreated cells incubated with 40 μM for 12 hours
[19] = LPS + L-NAME (2 mM) + compound 40 μM
[20] = LPS + NLA (2 mM) + compound 40 μM

## Nc1ccncc1 [4-aminopyridine, reference compound]
[1]; [10]
  effect of the blocker/inhibitor on oroxylin A-induced relaxation: significantly inhibited

## O=c1cc(-c2ccccc2)oc2cc(O)c(O)c(O)c12 [baicalein]
[2]
  increased expression of iNOS in NLA or L-NAME plus LPS treated cells: inhibited
[3]
  LPS-induced COX-2 protein: did not inhibit
  basal COX-2 expression, compound alone: did not affect
[4]
  direct effect on COX-2 enzyme activity: did not directly affect
  PGE2 production using added arachidonic acid as a substrate: no decrease
[4]; [11]
  PGE2: 6.1 ± 0.2 ng/mL
[4]; [12]
  PGE2: 6.2 ± 0.5 ng/mL
[5]; [13]
  NO in medium: 15.4 ± 0.3 μM/6 × 10^5 cells
[5]; [14]
  NO in medium: 13.1 ± 0.9 μM/6 × 10^5 cells
[5]
  iNOS enzyme activity in intact cells by nitrite production in the medium: did not affect
[6]
  direct effect on iNOS enzyme activity: did not directly affect
  NO production by direct enzyme activity assay, compound added to lysate (Table 3): did not inhibit
[6]; [15]
  iNOS specific activity: NO formation: 7.2 ± 0.1 μM/200 μg total protein
[6]; [16]
  iNOS specific activity: NO formation: 9.2 ± 1.8 μM/200 μg total protein
[6]; [17]
  iNOS specific activity: NO formation: 9.8 ± 2.3 μM/200 μg protein
[6]; [18]
  iNOS specific activity: NO formation: 8.1 ± 1.9 μM/200 μg protein
[7]; [19]
  PGE2: 6.2 ± 0.5 ng/mL
[7]; [20]
  PGE2: 5.5 ± 0.8 ng/mL
[8]; [19]
  NO: 7.9 ± 1.2 μmole/4 × 10^5
[8]; [20]
  NO: 8.3 ± 1.3 μmole/4 × 10^5
[8]
  IC50: 19.4 ± 1 µM
  LPS-induced nitrite production: significant concentration-dependent inhibition

## O=C(O)[C@H]1O[C@@H](Oc2cc3oc(-c4ccccc4)cc(=O)c3c(O)c2O)[C@H](O)[C@@H](O)[C@@H]1O [baicalin]
[2]
  increased expression of iNOS in NLA or L-NAME plus LPS treated cells: inhibited
[3]
  LPS-induced COX-2 protein: did not inhibit
  basal COX-2 expression, compound alone: did not affect
[4]
  direct effect on COX-2 enzyme activity: did not directly affect
  PGE2 production using added arachidonic acid as a substrate: no decrease
[4]; [11]
  PGE2: 6.1 ± 0.6 ng/mL
[4]; [12]
  PGE2: 5.9 ± 0.4 ng/mL
[5]; [13]
  NO in medium: 14.5 ± 0.5 μM/6 × 10^5 cells
[5]; [14]
  NO in medium: 14.8 ± 1.5 μM/6 × 10^5 cells
[5]
  iNOS enzyme activity in intact cells by nitrite production in the medium: did not affect
[6]
  direct effect on iNOS enzyme activity: did not directly affect
  NO production by direct enzyme activity assay, compound added to lysate (Table 3): did not inhibit
[6]; [15]
  iNOS specific activity: NO formation: 8.7 ± 1.0 μM/200 μg total protein
[6]; [16]
  iNOS specific activity: NO formation: 9.0 ± 1.1 μM/200 μg total protein
[6]; [17]
  iNOS specific activity: NO formation: 8.7 ± 1.3 μM/200 μg protein
[6]; [18]
  iNOS specific activity: NO formation: 9.4 ± 2.1 μM/200 μg protein
[7]; [19]
  PGE2: 6.1 ± 0.3 ng/mL
[7]; [20]
  PGE2: 5.8 ± 1.1 ng/mL
[8]; [19]
  NO: 8.5 ± 0.9 μmole/4 × 10^5
[8]; [20]
  NO: 7.1 ± 0.3 μmole/4 × 10^5
[8]
  IC50: 15 ± 1.4 µM
  LPS-induced nitrite production: significant concentration-dependent inhibition

## O=C(O[C@@H]1Cc2c(O)cc(O)cc2O[C@@H]1c1cc(O)c(O)c(O)c1)c1cc(O)c(O)c(O)c1 [epigallocatechin gallate, reference compound]
[1]
  relaxation of cerebral arteries: very small relaxation or no response

## C[C@@H]1C(=O)O[C@H]2C[C@@]34[C@H]5C[C@@H](C(C)(C)C)[C@]36[C@@H](OC(=O)[C@@H]6O)O[C@@]4(C(=O)O5)[C@]21O [ginkgolide A, reference compound]
[1]
  relaxation of cerebral arteries: very small relaxation or no response

## CC1C(=O)OC2C(O)C34C5CC(C(C)(C)C)C36C(OC(=O)C6O)OC4(C(=O)O5)C12O (centres unmarked) [ginkgolide B, reference compound]
[1]
  relaxation of cerebral arteries: very small relaxation or no response

## Cc1cnc(C(=O)NCCc2ccc(S(=O)(=O)NC(=O)NC3CCCCC3)cc2)cn1 [glipizide, reference compound]
[1]; [10]
  effect of the blocker/inhibitor on oroxylin A-induced relaxation: did not affect

## COc1ccc2c(c1)c(CC(=O)O)c(C)n2C(=O)c1ccc(Cl)cc1 [indomethacin, reference compound]
[4]; [11]
  PGE2: 2.0 ± 0.7 ng/mL
[4]
  PGE2 production using added arachidonic acid as a substrate: significantly inhibited

## COc1c(O)cc(O)c2c(=O)cc(-c3ccccc3)oc12 [wogonin, 5,7-dihydroxy-8-methoxy flavone]
[2]
  increased expression of iNOS in NLA or L-NAME plus LPS treated cells: inhibited
[5]; [13]
  NO in medium: 16.5 ± 0.3 μM/6 × 10^5 cells
[5]; [14]
  NO in medium: 16.3 ± 0.3 μM/6 × 10^5 cells
[7]; [19]
  PGE2: 2.3 ± 0.7 ng/mL
[7]; [20]
  PGE2: 2.1 ± 0.4 ng/mL
[7]; co-treatment 20 and 40 μM, LPS (100 ng/mL) 24 hours
  LPS-induced PGE2 production: inhibited
[8]; [19]
  NO: 6.8 ± 0.5 μmole/4 × 10^5
[8]; [20]
  NO: 6.7 ± 0.7 μmole/4 × 10^5
[8]
  LPS-induced nitrite production: significant concentration-dependent inhibition

## Iberiotoxin (QFTDVDCSVSKECWSVCKDLFGVDRGKCMGKKCRCYQ; UniProt P24663 1-37, looked up) [reference compound]
[1]; [10]
  effect of the blocker/inhibitor on oroxylin A-induced relaxation: slightly but significantly inhibited

## cuphiin D1
[9]
  LPS-induced increase of nuclear p65 and decrease of cytosolic IkB: did not block

## oenothein B
[9]
  LPS-induced increase of nuclear p65 and decrease of cytosolic IkB: significantly inhibited

## tetraethylammonium [TEA, reference compound]
[1]
  effect of the blocker on oroxylin A-induced relaxation: significantly shifted the oroxylin A concentration response curves to the right; also recorded: almost abolished
  effect of the blocker/inhibitor on oroxylin A-induced relaxation: concentration-dependently (1-10 mM) inhibited; also recorded: blocked
